Literature values in patent US8535699B2, “Insect-repelling resin composition and extended-release insect-repelling resin molded product obtained therefrom” (Sumika Life Tech, Limited, priority 2009, dated 2013).

Conditions: at 20° C.

| SMILES | Vapour pressure |
| --- | --- |
| CCOP(=O)(OCC)OCC [Triethyl phosphate] | 0.3 mmHg |
| CC(C)=CC1C(C(=O)OCc2cccc(Oc3ccccc3)c2)C1(C)C (centres unmarked) [Phenothrin] | 1.2×10^−6 mmHg |
